Where a name gives a salt, the structure may show the parent alone.
Target: T1, Human P2X1 receptor (P2X1R) (Homo sapiens, UniProt P51575)
T1 construct: expressed in transfected cells; host or cells: HEK-293
T1 sequence (P51575 1-399): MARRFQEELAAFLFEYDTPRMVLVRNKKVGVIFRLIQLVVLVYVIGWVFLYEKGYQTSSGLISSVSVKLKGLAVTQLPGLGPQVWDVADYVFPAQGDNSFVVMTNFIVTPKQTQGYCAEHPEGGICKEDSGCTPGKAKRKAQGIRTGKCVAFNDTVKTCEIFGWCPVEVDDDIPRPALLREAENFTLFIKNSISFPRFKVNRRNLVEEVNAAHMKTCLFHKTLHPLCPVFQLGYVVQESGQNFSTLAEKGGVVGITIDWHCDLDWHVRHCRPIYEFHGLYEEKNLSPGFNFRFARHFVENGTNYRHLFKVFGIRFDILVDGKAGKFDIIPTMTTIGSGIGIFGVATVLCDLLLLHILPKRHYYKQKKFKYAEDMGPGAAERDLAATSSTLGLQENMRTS
Experiment: Receptor-mediated calcium entrance assay (Calcium Assay), P2X1R transfected HEK-293 cells
Assay type: cell-based
Conditions: ATP 20 μM stimulus; for remaining activity at 5 µM: HEK293, compound at 5 μM, read-out: Percentage of activity remains in the presence of the compound at 5 μM, P2X1R (Calcium Assay)
Source text: Human P2X1 receptor (P2X1R) is a member of P2X family. […] Thus, the calcium assay was used. In the calcium assay, P2X receptor activation leads to opening of ion channels, which increases intracellular calcium concentration. The increased intracellular calcium concentration can be detected by a calcium indicator dye such as Fluo-4 or Fluo-8. Molecular Probes™ Fluo-4, AM (Cat. No. F14201 from Fisher Scientific) was used in the assay. The procedures were similar as described in the Yo-Pro-1 assay until day 4. The construct of P2X1R for transient transfection to HEK-293 cells was the courtesy from Dr. Richard J. Evans laboratory (J. Biol. Chem. 279:9043-9055). After transfection and expression, on day 4 cells were washed twice by Ca-HBSS (The composition (in mM) was NaCl 135, HEPES 10, D-glucose 10, KCl 5.4, CaCl2 2, and MgCl2 1, pH to 7.4 by NaOH) and incubated in dye loading solution (The solution contained 2.5 μM Fluo-4, 1 mM probenecid, and 1× PowerLoad (Cat. No. P10020 from Fisher Scientific) in Ca-HBSS) for 70 minutes at 37° C. Then the extracellular loading dye was washed away and cells were incubated at Ca-HBSS containing 1 mM probenecid for 30 minutes. Before the final steps, probenecid was washed away with Ca-HBSS. The assay was performed by adding 25 μl of Ca-HBSS followed by 25 μl of various test compounds. At this point, the base level of fluorescence was obtained through the microplate reading—the base microplate reading for this assay. At the end, the stimulus (ATP at 20 μM was the final concentration for P2X1R) was added to activate the P2X1R. Activation of P2X1R opened the channel to allow influx of calcium, which was represented by fluorescence increases that were measured by the microplate device with excitation at 475 nm and emission wavelength in the range of 500-550 nm. The data were analyzed the same way as described before: The result of each well was first normalized by its corresponding base microplate reading. Then, the negative control signal was subtracted from. In the negative control, the test compound and the stimulus were replaced by Ca-HBSS. […] An average of six highest values of the plate (AVG) were considered as 100% and the value of each well was divided by AVG and presented as the relative values in percentages.

remaining activity at 5 µM [%] | SMILES | Percentage of activity remains in the presence of the compound at 5 μM, P2X1R (Calcium Assay) [%]
55.4 | CCOc1ccc(S(=O)(=O)N2CCCC(NC(=O)CCc3ccccc3)C2)cc1 (centres unmarked) [#37] | –
43.8 | O=C(CCc1ccccc1)NC1CCCN(S(=O)(=O)c2ccc(N3CCC(Oc4ccccc4)CC3)cc2)C1 (centres unmarked) [#38] | –
74.5 | CC(C)OC1CCN(c2ccc(S(=O)(=O)N3CCCC(NC(=O)CCc4ccccc4)C3)cc2)CC1 (centres unmarked) [#39] | –
39 | CC1CCN(c2ccc(S(=O)(=O)N3CCCC(NC(=O)CCc4ccccc4)C3)cc2)CC1 (centres unmarked) [#40] | –
46.7 | CC(C)(C)OC(=O)N1CCC(C2CCN(c3ccc(S(=O)(=O)N4CCCC(NC(=O)CCc5ccccc5)C4)cc3)CC2)CC1 (centres unmarked) [#41] | –
66.3 | O=C(CCc1ccccc1)NC1CCCN(S(=O)(=O)c2ccc(N3CCC(C(F)(F)F)CC3)cc2)C1 (centres unmarked) [#42] | –
57.1 | O=C(CCc1ccccc1)NC1CCCN(S(=O)(=O)c2ccc(F)c(Cl)c2)C1 (centres unmarked) [#43] | –
40.5 | CC1CCCN(c2ccc(S(=O)(=O)N3CCCC(NC(=O)CCc4ccccc4)C3)cc2)C1 (centres unmarked) [#44] | –
52 | O=C(CCc1ccccc1)NC1CCCN(S(=O)(=O)c2ccc(N3CCCCC3)c(Cl)c2)C1 (centres unmarked) [#45] | –
67.7 | O=C(CCc1ccccc1)NC1CCCN(S(=O)(=O)c2ccc(N3CCC(F)(F)CC3)cc2)C1 (centres unmarked) [#46] | –
50.1 | CC1CCCCN1c1ccc(S(=O)(=O)N2CCCC(NC(=O)CCc3ccccc3)C2)cc1 (centres unmarked) [#47] | –
65.8 | CC(C)N(C(C)C)S(=O)(=O)c1ccc(N2CCCC(NC(=O)CCc3ccccc3)C2)cc1 (centres unmarked) [#49] | –
47.8 | O=C(CCc1ccccc1)NC1CCCN(c2ccc(S(=O)(=O)Nc3ccccc3)cc2)C1 (centres unmarked) [#50] | –
63.1 | O=C(CCc1ccccc1)NC1CCCN(c2ccc(S(=O)(=O)NC3CCCCC3)cc2)C1 (centres unmarked) [#51] | –
63.4 | O=C(CCc1ccccc1)NC1CCCN(c2ccc(S(=O)(=O)NCc3ccco3)cc2)C1 (centres unmarked) [#52] | –
66.2 | NS(=O)(=O)c1ccc(N2CCCC(NC(=O)CCc3ccccc3)C2)cc1 (centres unmarked) [#53] | –
48.4 | O=C(CCc1ccccc1)NC1CCCN(c2ccc(S(=O)(=O)N3CCCCC3)cc2)C1 (centres unmarked) [#54] | –
53.8 | O=C(CCc1ccccc1)NC1CCCN(c2ccc(S(=O)(=O)N3CCCC3)cc2)C1 (centres unmarked) [#55] | –

Continued, compound first:

SMILES | remaining activity at 5 µM [%] | Percentage of activity remains in the presence of the compound at 5 μM, P2X1R (Calcium Assay) [%]
CS(=O)(=O)c1ccc(N2CCCC(NC(=O)CCc3ccccc3)C2)cc1 (centres unmarked) [#1] | 56.5 | –
COc1ccc(S(=O)(=O)N2CCCC(NC(=O)CCc3ccccc3)C2)cc1 (centres unmarked) [#2] | 39.1 | –
O=C(CCc1ccccc1)NC1CCCN(S(=O)(=O)c2ccc(F)cc2)C1 (centres unmarked) [#3] | 33.3 | –
O=C(CCc1ccccc1)NC1CCCN(S(=O)(=O)c2ccc(OCc3ccccc3)cc2)C1 (centres unmarked) [#4] | 43.7 | –
O=C(CCc1ccccc1)NC1CCCN(S(=O)(=O)c2ccc(N3CCCCC3)cc2)C1 (centres unmarked) [#5] | 59.6 | –
CC(C)COc1ccc(S(=O)(=O)N2CCCC(NC(=O)CCc3ccccc3)C2)cc1 (centres unmarked) [#6] | 51 | –
CC(C)S(=O)(=O)c1ccc(N2CCCC(NC(=O)CCc3ccccc3)C2)cc1 (centres unmarked) [#7] | 65.6 | –
O=C(CCc1ccccc1)NC1CCCN(S(=O)(=O)Cc2ccc(Br)cc2)C1 (centres unmarked) [#8] | 67 | –
O=C(CCc1ccccc1)NC1CCCN(S(=O)(=O)c2ccc(-n3cc(Br)cn3)cc2)C1 (centres unmarked) [#9] | 92.8 | –
O=S(=O)(c1ccccc1)C1CN(S(=O)(=O)c2ccc(N3CCCCC3)cc2)C1 [#10] | 51.5 | –
O=S(=O)(c1ccccc1)C1CN(S(=O)(=O)c2ccc(N3CCOCC3)cc2)C1 [#11] | 44.3 | –
O=C(CCc1ccccc1)NC1CCCN(S(=O)(=O)c2ccc(N3CCOCC3)cc2)C1 (centres unmarked) [#12] | 52.8 | –
O=C(CCc1ccccc1)NC1CCCN(S(=O)(=O)c2ccc(N3CCCC3)cc2)C1 (centres unmarked) [#13] | 54.2 | –
CN(C)c1ccc(S(=O)(=O)N2CCCC(NC(=O)CCc3ccccc3)C2)cc1 (centres unmarked) [#14] | 63.9 | –
CCCCNc1ccc(S(=O)(=O)N2CCCC(NC(=O)CCc3ccccc3)C2)cc1 (centres unmarked) [#15] | 70.1 | –
O=C1CCC(N2Cc3c(NC(=O)CCc4ccccc4)cccc3C2=O)C(=O)N1 (centres unmarked) [#16] | 51.5 | –
COCCOc1ccc(S(=O)(=O)N2CCCC(NC(=O)CCc3ccccc3)C2)cc1 (centres unmarked) [#17] | 60.9 | –
CN1CCN(c2ccc(S(=O)(=O)N3CCCC(NC(=O)CCc4ccccc4)C3)cc2)CC1 (centres unmarked) [#18] | 62.3 | –

SMILES | remaining activity at 5 µM [%] | Percentage of activity remains in the presence of the compound at 5 μM, P2X1R (Calcium Assay) [%]
O=C(NCCc1ccccc1)C1CCN(S(=O)(=O)c2ccc(N3CCCCC3)cc2)CC1 [#20] | 75.4 | –
O=C(NCCc1ccccc1)C1CCN(S(=O)(=O)c2ccc(N3CCCC3)cc2)CC1 [#21] | 50.2 | –
CC(C)(C)OC(=O)N1CCN(c2ccc(S(=O)(=O)N3CCC(C(=O)NCCc4ccccc4)CC3)cc2)CC1 [#22] | 59.2 | –
O=C(NCCc1ccccc1)C1CCN(S(=O)(=O)c2ccc(N3CCOCC3)cc2)CC1 [#23] | 75.5 | –
O=C(NCCc1ccccc1)C1CCCN(S(=O)(=O)c2ccc(N3CCOCC3)cc2)C1 (centres unmarked) [#24] | 66.3 | –
O=C(NCCc1ccccc1)C1CCCN(S(=O)(=O)c2ccc(N3CCCC3)cc2)C1 (centres unmarked) [#25] | 66.1 | –
CCCCNc1ccc(S(=O)(=O)N2CCC(C(=O)O)CC2)cc1 [#27] | 50.8 | –
NC(=O)c1cc(Br)cc(N2CCOCC2)c1 [#28] | 62.6 | –
O=C(CCc1ccccc1)N1CCNCC1 [#29, hydrochloride] | 62.5 | –
O=C(CCc1ccccc1)N1CCN(S(=O)(=O)c2ccc(F)cc2)CC1 [#30] | 70.1 | –
CC(C)(C)OC(=O)N1CCN(c2ccc(S(=O)(=O)N3CCN(C(=O)CCc4ccccc4)CC3)cc2)CC1 [#31] | 43.9 | –
O=C(CCc1ccccc1)N1CCN(S(=O)(=O)c2ccc(N3CCOCC3)cc2)CC1 [#32] | 46.7 | –
O=C(CCc1ccccc1)N1CCN(S(=O)(=O)c2ccc(NC3CCCCC3)cc2)CC1 [#33] | 44.9 | –
O=C(CCc1ccccc1)N1CCN(S(=O)(=O)c2ccc(N3CCCCC3)cc2)CC1 [#34] | 59.3 | –
O=C(CCc1ccccc1)N1CCN(S(=O)(=O)c2ccc(N3CCCC3)cc2)CC1 [#35] | 56.3 | –
CC(C)(C)OC(=O)N1CCN(c2ccc(S(=O)(=O)N3CCCC(C(=O)NCCc4ccccc4)C3)cc2)CC1 (centres unmarked) [#36] | 49 | –
Cc1nc(N=Nc2ccc(S(=O)(=O)[O-])cc2S(=O)(=O)[O-])c(COP(=O)([O-])[O-])c(C=O)c1O.[Na+].[Na+].[Na+].[Na+] [PPADS, Pyridoxalphosphate-6-azophenyl-2′,4′-disulfonic acid tetrasodium, reference compound] | – | 26.7

— US20220380310A1, “P2X7R ANTAGONISTS” (priority 2019, published 2022)
